Source: article PMC8967002, “Quantitative input–output dynamics of a c-di-GMP signal transduction cascade in Vibrio cholerae” (PLoS Biology, 2022)

Columns and labels:
NspS-MbaA = NspS-MbaA (Vibrio cholerae, UniProt Q9KU25); conditions: ΔnspC ΔpotD1 V. cholerae cells (no norspermidine synthesis or import); M9 minimal medium; activates MbaA diguanylate cyclase output via NspS
NspS-6xHis = NspS-6xHis (Vibrio cholerae, UniProt Q9KU25); assay: biochemical
Chain of NspS-6xHis (Q9KU25 35-359 limits assumed): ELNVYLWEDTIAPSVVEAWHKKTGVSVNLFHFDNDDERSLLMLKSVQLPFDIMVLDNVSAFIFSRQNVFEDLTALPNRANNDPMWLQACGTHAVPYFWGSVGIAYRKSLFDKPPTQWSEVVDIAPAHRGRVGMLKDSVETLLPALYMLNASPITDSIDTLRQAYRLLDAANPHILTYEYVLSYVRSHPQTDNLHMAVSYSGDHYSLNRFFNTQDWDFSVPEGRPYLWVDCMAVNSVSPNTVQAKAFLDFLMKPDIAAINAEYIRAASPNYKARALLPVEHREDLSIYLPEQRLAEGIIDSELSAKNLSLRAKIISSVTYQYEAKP

Chain of NspS-MbaA (Q9KU25 whole entry, looked up): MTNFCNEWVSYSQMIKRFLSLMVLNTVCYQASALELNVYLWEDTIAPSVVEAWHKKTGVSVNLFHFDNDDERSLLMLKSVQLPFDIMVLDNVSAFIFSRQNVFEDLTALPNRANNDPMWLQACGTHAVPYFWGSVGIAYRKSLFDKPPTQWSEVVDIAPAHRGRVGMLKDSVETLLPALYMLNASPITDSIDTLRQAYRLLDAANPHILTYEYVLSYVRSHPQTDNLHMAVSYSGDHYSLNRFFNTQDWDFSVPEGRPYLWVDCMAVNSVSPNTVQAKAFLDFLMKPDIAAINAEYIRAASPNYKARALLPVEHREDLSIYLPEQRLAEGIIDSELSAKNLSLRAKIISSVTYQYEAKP

NCCCNCCCN [norspermidine]
EC50 (NspS-MbaA): 0.001 to 0.005 µM | Kd (NspS-6xHis): 0.0671 ± 0.0122 µM

NCCCCNCCCN [spermidine]
Kd (NspS-6xHis): 0.0484 ± 0.0147 µM
